From BindingDB's records for doi:10.1016/j.ejmech.2019.111863 (University of Malakand, 2020)

Biological target: Prostaglandin G/H synthase 2 (Homo sapiens) (UniProt P35354)
Test: Inhibition of recombinant human COX2 expressed in baculovirus infected Sf21 cells using arachidonic acid as substrate preincubated for 5 mins followed by substrate addition and measured after 5 mins by UV-visible spectrophotometric method

Sequence of Prostaglandin G/H synthase 2 (Homo sapiens) (P35354 whole entry, looked up): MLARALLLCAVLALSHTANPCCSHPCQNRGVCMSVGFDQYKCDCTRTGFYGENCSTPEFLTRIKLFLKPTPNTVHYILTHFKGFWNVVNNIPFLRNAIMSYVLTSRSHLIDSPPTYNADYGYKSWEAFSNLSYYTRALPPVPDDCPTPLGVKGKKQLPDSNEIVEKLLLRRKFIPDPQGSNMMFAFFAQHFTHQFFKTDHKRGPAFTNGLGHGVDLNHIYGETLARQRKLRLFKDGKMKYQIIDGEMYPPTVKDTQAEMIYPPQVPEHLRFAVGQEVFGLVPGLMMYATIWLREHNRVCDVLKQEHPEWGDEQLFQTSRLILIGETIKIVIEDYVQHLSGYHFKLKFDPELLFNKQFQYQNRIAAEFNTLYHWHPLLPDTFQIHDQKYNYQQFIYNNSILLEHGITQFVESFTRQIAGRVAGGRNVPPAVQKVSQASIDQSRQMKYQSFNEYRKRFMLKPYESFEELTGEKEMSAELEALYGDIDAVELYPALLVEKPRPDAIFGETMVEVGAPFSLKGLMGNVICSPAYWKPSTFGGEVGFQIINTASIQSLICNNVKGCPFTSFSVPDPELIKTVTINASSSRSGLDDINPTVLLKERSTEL

Compound	IC50
Cc1ccc(C(=O)CC2CC(=O)N(c3ccc(S(N)(=O)=O)cc3)C2=O)cc1 (centres undefined)	0.98 µM
NS(=O)(=O)c1ccc(N2C(=O)CC(CC(=O)c3ccc(Cl)cc3)C2=O)cc1 (centres undefined)	6.29 µM
COc1ccc(C(=O)CC2CC(=O)N(c3ccc(S(N)(=O)=O)cc3)C2=O)cc1 (centres undefined)	2.1 µM
NS(=O)(=O)c1ccc(N2C(=O)CC(CC(=O)c3ccccc3)C2=O)cc1 (centres undefined)	4.23 µM
NS(=O)(=O)c1ccc(N2C(=O)CC(CC(=O)c3ccccn3)C2=O)cc1 (centres undefined)	8.94 µM
NS(=O)(=O)c1ccc(N2C(=O)CC(C3CCCCCC3=O)C2=O)cc1 (centres undefined)	20.7 µM
O=C1CCCC1C1CC(=O)N(c2ccccc2)C1=O (centres undefined)	51.4 µM
O=C1CCCCCC1C1CC(=O)N(c2ccccc2)C1=O (centres undefined)	39.5 µM
O=C1CCOCC1C1CC(=O)N(c2ccccc2)C1=O (centres undefined)	56.6 µM
CC1CCC(=O)C(C2CC(=O)N(Cc3ccccc3)C2=O)C1 (centres undefined)	21.9 µM
CC1CCC(=O)C(C2CC(=O)N(c3ccccc3)C2=O)C1 (centres undefined)	56.5 µM
O=C1CCCCC1C1CC(=O)N(c2ccc(Br)cc2)C1=O (centres undefined)	113 µM
O=C1CCCCC1C1CC(=O)N(Cc2ccccc2)C1=O (centres undefined)	20 µM
O=C1CCCCC1C1CC(=O)N(c2ccccc2)C1=O (centres undefined)	45.1 µM
